Laboratory results as given in paper PMC12152147, “DDB1 engagement defines the selectivity of S656 analogs for cyclin K degradation over CDK inhibition” (EMBO Reports, 2025).
Values joined by “and” are separate entries in the source; they are usually repeats but may differ in a detail not shown here. Equal entries are not always repeated.

Experiments:
primary AML specimens = assay: Discovery screen: 6-day single-dose (1 μM) viability, CellTiterGlo; assay type: cell-based, human; conditions: 6 days
Description: As recently described, our group conducted a high-throughput screening (HTS) assay assessing the response of 56 primary AML specimens to a library of 10,000 compounds (Moison et al, [2024]). This diverse small molecule library encompassed compounds with a wide range of structural diversity (Bristol-Myers Squibb), including clinical-grade compounds. Primary AML specimens representing the biological diversity of the disease, along with normal hematopoietic cells (CD34^+ cord blood cells), were exposed to a 6-day single-dose compound treatment (1 μM) and viability was assessed using the CellTiterGlow luminescent assay (Appendix Fig. S1A–C). A profile of inhibition—or fingerprint—was generated for each small molecule across the 56 primary AML specimens tested. […] Among these candidates, 12 were validated in cell lines and primary specimens and selected based on their chemotypes. […] Of note, highly sensitive AML specimens spanned various AML subgroups, underscoring the broad activity of S656 across genetically diverse AMLs (Fig. 1D).
Freshly thawed primary AML specimens were used for chemical screens. […] Cell viability was evaluated after 6 days in culture using the CellTiterGlo assay according to the manufacturer’s instruction. Percentage of inhibition for dose response curves was calculated as 100 – (100 × (mean luminescence [compound]/mean luminescence [DMSO])). […]

OCI-AML5 cells = assay: Cell death by Annexin V/PI staining; assay type: cell-based, H. sapiens; conditions: 24 h
CD34+ cord blood cells = assay: Chemical screen / dose response on CD34+ cord blood cells; assay type: cell-based, Human
Experimental: Fresh umbilical cord blood units were collected from consenting donors according to ethically approved procedures at St Justine, Maisonneuve-Rosemont (Montréal, QC, Canada) and Charles Le Moyne (Longueuil, QC, Canada, approval reference number AA-HCLM-16-014) Hospitals. Human CD34^+ cells were isolated using the EasySep Human Cord Blood CD34^+ Selection Kit through positive magnetic selection. Chemical screen was performed as described in primary AML with the following modifications: 2000 cord blood cells were seeded, CB media contains StemSpan-ACF supplemented with 100 ng/mL SCF, 100 ng/mL FLT3L, 50 ng/mL TPO, 10 μg/mL LDL, 1× glutamax, gentamicin (50 μg/mL), ciprofloxacin (10 μg/mL), SR1 (500 nmol/L) and UM729 (500 nmol/L).
Dose-response assays in primary AML specimens were performed as in chemical screen (see above) with the exception that compounds were tested in serial dilution (8 dilutions, 1:4, 10 μM down to 0.5 nM). Dose-response assays in OCI-AML5 cell line were conducted similarly with the following modifications: 300 cells per well were seeded in 50 μL of cell line media and cell viability was evaluated after 4 days in culture.

[1] = system: OCI-AML5 and U937 cell lines; assay: Synergistic interaction assay with THZ531 (Bliss score); assay type: cell-based
Description: 3. It may be worthwhile to investigate whether the CDK12/13 inhibitor THZ531 could synergize with S656 or analogues like UOM-005636 that specifically degrade Cyclin K, in combination cytotoxicity assays, assessing selective suppression of AML viability over normal cells. Both […]
inhibiting CDK12, and S656 / UOM-005636 by degrading Cyclin K. Similar synergistic effects were observed by Katharina et al., where THZ531 promoted prostate ca ncer cell sensitivity to androgen deprivation therapy [Frei, K et. al. Inhibition of the Cyclin K-CDK12 complex induces DNA damage and increases the effect of androgen deprivation therapy in prostate cancer. Int J […]
Indeed, THZ531 is a covalent CDK12/13 inhibitor that specifically binds to the kinase pocket of […]
pocket of CDK12, and that pre-incubation with THZ531 competes with S656-mediated Cyclin K degradation (see Figure 5E).
We performed a synergistic interaction assay between THZ531 and S656 or UOM-005636 in OCI-AML5 and U937 cell lines (see below). […]
interactions between THZ531 and our cyclin K degrader molecules. This is likely due to both drugs competing for the same binding site, rather than acting through complementary pathways. […]

tumor growth = system: tumor growth; set-up: method as in Dieter et al. (PMID34289372); conditions: orally in mice, 20 mg/kg, 5 days per week; ref Dieter et al. (PMID34289372); cited from earlier work

IC50 (CD34+ cord blood cells; Homo sapiens, dose-response, read-out: IC50 on purified CD34+ cells from cord blood) [nM] | Structure (SMILES) | inhibition at 1 µM (primary AML specimens; Homo sapiens, 144 h, 1 μM, in 10 out of 56 primary AML specimens, read-out: growth inhibition) [%] | % inhibition S656 at 1uM (primary AML specimens; discovery screen, one primary AML specimen per row (Patient ID in c0)) [%] | Early Apoptosis (FITC+/PI-) (OCI-AML5 cells; S656 1uM) | Live(FITC-/PI-) (OCI-AML5 cells; S656 1uM) | Necrosis (FITC-/PI+) (OCI-AML5 cells; S656 1uM) | Late Apoptosis (FITC+/PI+) (OCI-AML5 cells; S656 3uM) | Live(FITC-/PI-) (OCI-AML5 cells; S656 3uM) | Necrosis (FITC-/PI+) (OCI-AML5 cells; S656 3uM) | Late Apoptosis (FITC+/PI+) (OCI-AML5 cells; S656 5uM) | Live(FITC-/PI-) (OCI-AML5 cells; S656 5uM) | Necrosis (FITC-/PI+) (OCI-AML5 cells; S656 5uM) | activity against CD34+ cord blood cells (CD34+ cord blood cells; discovery screen, 1 μM, 6 days) | synergistic interaction with THZ531 (Bliss score) [1] | tolerability in animals (tumor growth) | tumor growth in vivo (tumor growth)
1310 | CN(C)c1ccc(CC(=O)Nc2ncc(SCc3cccnc3)s2)cc1 [S656] | > 70 | 0.00 | 5.3% and 6.01% and 3.13% | 87.8% and 65.8% and 86.8% | 0.1% and 0.36% and 0.49% | 39.5% and 53.2% and 33.4% | 44.5% and 40.2% and 57.7% | 0.2% and 1.08% and 1.83% | 56.1% and 61.6% and 54.4% | 24.3% and 31% and 39% | 0.6% and 3.31% and 1.13% | low activity | moderate to very low synergistic | – | –
– | Cn1cc(-n2cnc3c(NCc4nc5cc(Cl)c(Cl)cc5[nH]4)nc(N4CCOCC4)nc32)cn1 [SR4835] | – | – | – | – | – | – | – | – | – | – | – | – | – | well tolerated | effectively inhibited tumor growth
